According to PubChem BioAssay AID248 (DTP/NCI, 2004):
Toxic doses and inconclusive results are not listed. Cut-off read from the data, not from the text of the source: active = T/C of 150% or more; inactive = T/C below 125%.

System: L1210 leukemia ip in BDF1 mice, survival T/C
Test: NCI In Vivo Anticancer Drug Screen. Data for tumor model L1210 Leukemia (intraperitoneal) in B6D2F1 (BDF1) mice
Settings: endpoint: mean survival time, higher = longer survival
How it was run: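 Read-out is survival time, reported as the treated-group measurement over the vehicle-control measurement.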

[1] = dose: 100.0 mg/kg/injection, schedule: Q01DX009 (ip), vehicle: saline with Tween-80
[2] = dose: 200.0 mg/kg/injection, schedule: Q01DX009 (ip), vehicle: saline with Tween-80
[3] = dose: 400.0 mg/kg/injection, schedule: Q01DX009 (ip), vehicle: saline with Tween-80
[4] = dose: 100.0 mg/kg/injection, schedule: Q04DX003 (ip), vehicle: saline
[5] = dose: 100.0 mg/kg/injection, schedule: Q04DX003 (ip), vehicle: saline with Tween-80
[6] = dose: 200.0 mg/kg/injection, schedule: Q04DX003 (ip), vehicle: saline with Tween-80
[7] = dose: 400.0 mg/kg/injection, schedule: Q04DX003 (ip), vehicle: saline with Tween-80
[8] = dose: 100.0 mg/kg/injection, schedule: Q01DX001 (ip), vehicle: saline
[9] = dose: 200.0 mg/kg/injection, schedule: Q01DX001 (ip), vehicle: saline
[10] = dose: 400.0 mg/kg/injection, schedule: Q01DX001 (ip), vehicle: saline

Measured: T/C

O=[N+]([O-])c1ccccc1O
inactive: [1] 98 % of control | [2] 107 % of control | [3] 100 % of control

COCc1ccc(N2C(N)=NC(N)=NC2(C)C)cc1
inactive: [4] 95 % of control

CC(=O)OC1CCC2C3C(C)C4(O)C=CCCC(C)(O4)C3CCC12C (centres undefined)
inactive: dose: 50.0 mg/kg/injection, schedule: Q01DX001 (sc), vehicle: steriod suspending solution 100 % of control | dose: 100.0 mg/kg/injection, schedule: Q01DX001 (sc), vehicle: steriod suspending solution 89 % of control | dose: 200.0 mg/kg/injection, schedule: Q01DX001 (sc), vehicle: steriod suspending solution 96 % of control | dose: 400.0 mg/kg/injection, schedule: Q01DX001 (sc), vehicle: steriod suspending solution 105 % of control

O=C(Nc1ccc(F)cc1)Nc1ccccc1C(F)(F)F
inactive: dose: 100.0 mg/kg/injection, schedule: Q01DX009 (ip), vehicle: Klucel (hydroxypropylcellulose) (HPC) 95 % of control | dose: 200.0 mg/kg/injection, schedule: Q01DX009 (ip), vehicle: Klucel (hydroxypropylcellulose) (HPC) 97 % of control | dose: 400.0 mg/kg/injection, schedule: Q01DX009 (ip), vehicle: Klucel (hydroxypropylcellulose) (HPC) 88 % of control

O=C(C[n+]1ccccc1)N/N=C/c1ccc(Cl)cc1
inactive: dose: 25.0 mg/kg/injection, schedule: Q01DX009 (ip), vehicle: saline with Tween-80 98 % of control | dose: 50.0 mg/kg/injection, schedule: Q01DX009 (ip), vehicle: saline with Tween-80 96 % of control | [1] 100 % of control

Nc1cc2c3c(cccc3c1)C(=O)N(Cc1ccccc1)C2=O
inactive: dose: 75.0 mg/kg/injection, schedule: Q01DX009 (ip), vehicle: Klucel (hydroxypropylcellulose) (HPC) 89 % of control | dose: 150.0 mg/kg/injection, schedule: Q01DX009 (ip), vehicle: Klucel (hydroxypropylcellulose) (HPC) 92 % of control | dose: 300.0 mg/kg/injection, schedule: Q01DX009 (ip), vehicle: Klucel (hydroxypropylcellulose) (HPC) 97 % of control

C=CCNC(=O)C1C2C=CC(C2)C1C(=O)O (centres undefined)
inactive: [5] 98 % of control | [6] 104 % of control | [7] 98 % of control

O=C(Oc1cccc(OC(=O)c2ccccc2)c1)c1ccccc1
inactive: [5] 100 % of control | [6] 91 % of control | [7] 88 % of control

Cc1cccc(CCl)c1
inactive: dose: 37.5 mg/kg/injection, schedule: Q01DX009 (ip), vehicle: saline sonified 106 % of control | dose: 75.0 mg/kg/injection, schedule: Q01DX009 (ip), vehicle: saline sonified 95 % of control | [4] 102 % of control | dose: 150.0 mg/kg/injection, schedule: Q01DX009 (ip), vehicle: saline sonified 98 % of control | dose: 200.0 mg/kg/injection, schedule: Q04DX003 (ip), vehicle: saline 100 % of control | dose: 400.0 mg/kg/injection, schedule: Q04DX003 (ip), vehicle: saline 93 % of control

CSc1nc(Cl)cc(/N=C/N(C)C)n1
inactive: [5] 95 % of control | [6] 115 % of control | [7] 111 % of control

CCCCCCCCCCCCCCCCN(C)/C(=N\NS(=O)(=O)c1cccc([N+](=O)[O-])c1)c1ccc(OC)c(OC)c1
inactive: dose: 100.0 mg/kg/injection, schedule: Q04DX003 (ip), vehicle: Klucel (hydroxypropylcellulose) (HPC) 93 % of control | dose: 200.0 mg/kg/injection, schedule: Q04DX003 (ip), vehicle: Klucel (hydroxypropylcellulose) (HPC) 95 % of control | dose: 400.0 mg/kg/injection, schedule: Q04DX003 (ip), vehicle: Klucel (hydroxypropylcellulose) (HPC) 93 % of control

CC1(N)COP(=O)(NCCCN2CCOCC2)OC1 (centres undefined)
inactive: [8] 96 % of control | [9] 96 % of control | [10] 96 % of control

c1ccc2sc(SSN3CCSCC3)nc2c1
inactive: dose: 75.0 mg/kg/injection, schedule: Q04DX003 (ip), vehicle: Klucel (hydroxypropylcellulose) (HPC) 102 % of control | dose: 100.0 mg/kg/injection, schedule: Q01DX001 (ip), vehicle: other 98 % of control | dose: 150.0 mg/kg/injection, schedule: Q04DX003 (ip), vehicle: Klucel (hydroxypropylcellulose) (HPC) 100 % of control | dose: 200.0 mg/kg/injection, schedule: Q01DX001 (ip), vehicle: other 92 % of control | dose: 300.0 mg/kg/injection, schedule: Q04DX003 (ip), vehicle: Klucel (hydroxypropylcellulose) (HPC) 89 % of control | dose: 400.0 mg/kg/injection, schedule: Q01DX001 (ip), vehicle: other 97 % of control

Cc1sc2ccc(Cl)cc2[n+]1CCC(=O)O
inactive: [1] 101 % of control | [5] 111 % of control | [2] 96 % of control | [6] 108 % of control | [3] 97 % of control | [7] 95 % of control

O=C(Nc1nccs1)NC1CCCCC1
inactive: dose: 100.0 mg/kg/injection, schedule: Q01DX009 (ip), vehicle: other 100 % of control | dose: 200.0 mg/kg/injection, schedule: Q01DX009 (ip), vehicle: other 96 % of control | dose: 400.0 mg/kg/injection, schedule: Q01DX009 (ip), vehicle: other 93 % of control

COC(=S)S
inactive: [8] 108 % of control | [9] 108 % of control | [10] 105 % of control

O=C1C=CC(=O)C(c2ccccc2)=C1
inactive: dose: 6.0 mg/kg/injection, schedule: Q04DX003 (ip), vehicle: Klucel (hydroxypropylcellulose) (HPC) 95 % of control | dose: 12.0 mg/kg/injection, schedule: Q01DX001 (ip), vehicle: saline 104 % of control | dose: 12.0 mg/kg/injection, schedule: Q01DX009 (ip), vehicle: Klucel (hydroxypropylcellulose) (HPC) 90 % of control | dose: 12.0 mg/kg/injection, schedule: Q04DX003 (ip), vehicle: Klucel (hydroxypropylcellulose) (HPC) 98 % of control | dose: 25.0 mg/kg/injection, schedule: Q01DX001 (ip), vehicle: saline 100 % of control | dose: 25.0 mg/kg/injection, schedule: Q01DX009 (ip), vehicle: Klucel (hydroxypropylcellulose) (HPC) 100 % of control | dose: 25.0 mg/kg/injection, schedule: Q04DX003 (ip), vehicle: Klucel (hydroxypropylcellulose) (HPC) 98 % of control | dose: 50.0 mg/kg/injection, schedule: Q01DX009 (ip), vehicle: Klucel (hydroxypropylcellulose) (HPC) 100 % of control
